# “Also recorded” adds a separate entry of the source.
# How the values were obtained:
# [1] = system: H460 tumor xenotransplanted in nude mice; experiment: Radionuclide (micro PET) imaging of targeting of apoptotic cells in tumor (Example 4-2); type: in vivo, mouse; conditions: 1 hour after injection
# Protocol: Nude mice in which tumor was xenotransplanted using H460 cells were prepared as in Example <2-1>. The mice were grouped into a doxorubicin (Sigma) treated group and untreated group. The treated group was treated with doxorubicin (10 mg/kg) 3 times, with an interval of 48 hours, a week prior to injection of the peptide. The peptide of the present invention (ApoPep-1), labeled with the radioactive isotope ^124I, was injected through the tail vein of each mouse under isoflurane anesthesia (treated group: 91 μCi; untreated group: 93 μCi). Further, ^18F-labeled FDG, which is frequently used for PET, was injected to the doxorubicin treated group and untreated group, at 300 μCi and 304 μCi, respectively. Radionuclide images were obtained using a micro PET instrument (Concorde MicroSystems) 5 hours after the injection of [^124I]ApoPep-1 and 1 hour after the injection of [^18F]FDG.
# [2] = system: etoposide-treated apoptotic cells (A549, H460, HeLa, L132, RAW); experiment: Microscopic observation of binding of the peptide to apoptotic cells (Example 3-1); type: cell-based; conditions: 10 μM fluorescein-labeled peptide 4° C. 1 hour
# Protocol: Cells were cultured in chamber slide (Nalgene Nunc) and treated with 50 μM etoposide (Sigma) for a given period of time (A549 and HeLa cells: for 15 hours, H460 cells: 24 hours, L132 cells: 3 hours, RAW cells: 6 hours) to induce apoptosis. The cells were cultured in RMPI-1640 medium (A549 and H460 cells) or DMEM (HeLa, L132 and RAW cells) containing antibiotics (penicillin and streptomycin) and 10% FBS. All the cells were subcultured every 3 or 4 days. The apoptosis-induced apoptotic cells were washed with PBS and blocked with 1% BSA at 37° C. for 30 minutes. Then, the cells were reacted with 10 μM of the peptide labeled with fluorescein, at 4° C. for 1 hour. After washing, the cells were reacted with an annexin V reaction buffer containing Alexa594-labeled annexin V (Molecular Probes), at room temperature for 15 minutes. The cells were washed with PBS and then fixed with 4% paraformaldehyde for 5 minutes. Thereafter, after counterstaining using the nuclear stain 4′,6-diamidino-2-phenylindole (DAPI), followed by treatment with a mounting solution (Molecular Probes), images of the cells were obtained under a fluorescence microscope (Zeiss).
# [3] = system: etoposide-treated apoptotic A549 cells; experiment: FACS analysis of binding to apoptotic cells (Example 3-3); type: cell-based, human
# Protocol: As another way of confirming the binding of the peptide of the present invention to apoptotic cells, apoptotic cells were treated with the peptide of the present invention, labeled with fluorescein, and the binding was confirmed through FACS analysis. […] The apoptotic cells or normal cells were reacted with ApoPep-1 (5 μM), ApoPep-2 (10 μM) or a control peptide at the same concentrations, labeled with fluorescein, at 4° C. for 1 hour. Further, the cells were reacted with fluorescein-labeled annexin V at room temperature for 15 minutes. After staining the cells with propodium iodide (PI) simultaneously, followed by washing with PBS, FACS analysis was performed using a FACS instrument (Becton Dickinson).
# apoptotic A549 cells [4] = experiment: Competitive inhibition of binding to apoptotic cells by annexin V treatment (Example 9-2); type: cell-based, human; conditions: pre-treatment at 0, 500 and 1000 μM; high concentration
# Protocol: (§1) In order to further investigate the binding properties of the polypeptide of the present invention (ApoPep-2) to apoptotic cells, competitive inhibition by annexin V was measured. To this end, first, apoptotic A549 cells were pre-treated with annexin V, not labeled with fluorescence, at concentrations of 0, 500 and 1000 μM. Then, after reacting the cells with fluorescence-labeled annexin V under the same condition as described in Example <9-1>, the binding of the cells was observed under a fluorescence microscope.
# (§2) Further, apoptotic A549 cells were pre-treated with annexin V, not labeled with fluorescence, at a concentration of 1000 μM. Then, after reacting the cells with fluorescence-labeled peptide under the same condition as described in Example <9-1>, the binding of the cells was observed under a fluorescence microscope.
# [5] = system: trail-treated apoptotic MDA-MB231 cells; experiment: Microscopic observation of binding of the peptide to apoptotic cells, MDA-MB231 (Example 9-1); type: cell-based; conditions: Alexa594-annexin V
# Protocol: (§3) Cells were cultured in chamber slide (Nunc) and treated with 50 μM etoposide (Sigma) for 16 hours (A549 cells) or 50 ng/ml trail (R&D Systems) for 16 hours (MDA-MB231 cells) to induce apoptosis. The cells were cultured in RMPI-1640 medium (A549 cells) or DMEM-High (MDA-MB231 cells) containing antibiotics (penicillin and streptomycin) and 10% FBS. All the cells were sub-cultured every 3 or 4 days. The apoptosis-induced apoptotic cells were washed with PBS and blocked with 1% BSA at 37° C. for 30 minutes. Then, the cells were reacted with 10 μM of the peptide labeled with fluorescein, at 4° C. for 1 hour. After washing, the cells were reacted with an annexin V reaction buffer containing Alexa594-labeled annexin V (Invitrogen) at room temperature for 15 minutes. The cells were washed with PBS and then fixed with 4% paraformaldehyde for 5 minutes. After treatment with a mounting solution containing the DAPI nuclear stain, images of the cells were obtained under a fluorescence microscope.
# apoptotic A549 cells [6] = experiment: Competitive inhibition of binding to apoptotic cells by annexin V treatment (Example 3-2); type: cell-based, human; conditions: pre-treatment at 0, 200 and 1000 μM; high concentration
# Protocol: as §1, with “peptide” for “polypeptide”, “(ApoPep-1)” for “(ApoPep-2)”, “200” for “500”, “[…].” for “1000 μM.”, “<3-1>,” for “<9-1>,”
# as §2, with “<3-1>,” for “<9-1>,”
# [7] = system: etoposide-treated apoptotic A549 cells; experiment: Microscopic observation of binding of the peptide to apoptotic cells, A549 (Example 9-1); type: cell-based, human; conditions: Alexa594-annexin V
# Protocol: as §3
# [8] = system: etoposide-treated apoptotic A549 cells; experiment: FACS analysis of binding to apoptotic cells (Example 9-3); type: cell-based, human
# Protocol: As another way of confirming the binding of the polypeptide of the present invention (ApoPep-2) to apoptotic cells, apoptotic cells were treated with the peptide, labeled with fluorescein, and the binding was confirmed through FACS analysis. First, apoptosis was induced by treating A549 cells with 50 μM etoposide for 20 hours. The apoptotic cells or normal cells were reacted with ApoPep-2 (10 μM) or a control peptide at the same concentration, labeled with fluorescein, at 4° C. or 37° C. for 1 hour. Further, the cells were reacted with fluorescein-labeled annexin V at room temperature for 15 minutes. After washing cells with PBS, FACS analysis was performed using a FACS instrument (Becton Dickinson).
# [9] = system: A549 tumor xenotransplanted in nude mice; experiment: In vivo fluorescence imaging of targeting of apoptotic cells in tumor (Example 10); set-up: species or system mouse
# Protocol: Nude mice in which tumor was xenotransplanted using A549 cells were prepared as in Example <8-1>. The mice were grouped into a doxorubicin (Sigma) treated group (Dox+) and untreated group (Dox−). The treated group was treated with doxorubicin (5 mg/kg) one time, 12 hours prior to injection of the peptide. At the tail vein of each mouse, the polypeptide of the present invention or a control peptide, labeled with fluorescein or Cy7.5 near-infrared fluorescent dye, was injected at a final concentration of 50 μM, under isoflurane anesthesia. Following the injection, in vivo fluorescence images were obtained 0.5 hours and every hour, from 1 hour to 4 hours, after the injection, using an Optix exPlore instrument (ART). The images were standardized using the software provided with the instrument.
# [10] = system: apoptotic cells in A549 tumor tissue xenotransplanted under the skin of nude mouse; experiment: Histological analysis of tumor targeting (Example 2); type: in vivo; conditions: fluorescein-labeled peptide, tail vein, 50 μM final, 2 hours circulation; cryosections
# Protocol: All animal experiments were performed in accordance with the guideline of the Institutional Animal Care and Use Committee. For tumor xenotransplantation, human lung cancer cells (A549, 1×10^7 cells) suspended in RMPI-1640 medium was subcutaneously injected at the right upper or lower limb of a 6-week-old male BALB/c nude mouse (Hyochang Science). Then, 3 weeks were given for the tumor to grow to a size of 0.5 to 1 cm. The A549 cell line used in the experiment was cultured in RMPI-1640 medium containing 10% fetal bovine serum (FBS) in which antibiotics (penicillin and streptomycin) were included. Subculturing was performed every 3 or 4 days.
# The peptides used in the present invention were fluorescein-attached form at the N-terminal. They were synthesized according to the standard Fmoc technique and then isolated through HPLC. The peptide synthesis was performed by an expertise company (Peptron).
# The peptide of the present invention (ApoPep-1) or a control peptide (amino acid sequence: NSSSVDK), labeled with fluorescein, was injected into the tail vein of a mouse under isoflurane anesthesia, to a final concentration of 50 μM, and 2 hours was given for circulation.
# For histological analysis, the mouse was anesthetized and the abdomen was cut open. After sequentially perfusing phosphate-buffered saline (PBS) and 4% paraformaldehyde through the heart, tumor tissues and organs were removed. Each tissue was cryosected and the peptide of the present invention was observed under a fluorescence microscope (Zeiss). Apoptosis in the tumor tissue was confirmed by TUNEL ([…] terminal deoxynucleotidyl transferase-mediated dUTP nick-end labeling) assay according to the instructions of the manufacturer (Chemicon). Fibrinogen staining was performed by immunohistochemistry using anti-fibrinogen antibody (Abcam) and secondary antibody labeled with Alexa 568, a red fluorescent reagent.
# [11] = system: A549 tumor xenotransplanted in nude mice; experiment: In vivo fluorescence imaging of targeting of apoptotic cells in tumor (Example 4-1); set-up: species or system mouse; conditions: +Dox (10 mg/kg, 3 times); fluorescein-labeled peptide 50 μM
# Protocol: Nude mice in which tumor was xenotransplanted using A549 cells were prepared as in Example <2-1>. The mice were grouped into a doxorubicin (Sigma) treated group (+Dox) and untreated group (−Dox). The treated group was treated with doxorubicin (10 mg/kg) 3 times, with an interval of 48 hours, a week prior to injection of the peptide. At the tail vein of each mouse, the peptide of the present invention or a control peptide, labeled with fluorescein, was injected at a final concentration of 50 μM, under isoflurane anesthesia. Following the injection, in vivo fluorescence images were obtained every hour, from 1 hour to 6 hours after the injection, using an Optix exPlore instrument (GE Healthcare). The images were standardized using the software provided with the instrument.
# Further, when the tumor grew considerably (1 cm or larger in diameter), the peptide of the present invention was injected at the same concentration as above, without doxorubicin treatment, and in vivo fluorescence images were obtained at every given time using an IVIS fluorescence imaging system (Chemipro).
# [12] = system: brain of stroke rat (middle cerebral artery occlusion/reperfusion); experiment: Molecular imaging of stroke (Example 6); type: in vivo; conditions: Cy7.5-labeled peptide 50 μM i.v.; one and three hours
# Protocol: A stroke model was established by occluding the left middle cerebral artery of a rat for 2 hours, followed by reperfusion. Two hours after the reperfusion, the peptide having an amino sequence represented by SEQ ID NO: 1 (ApoPep-1) and a control peptide, labeled with Cy7.5 NIR fluorescence, was intravenously injected at a final concentration of 50 μM to the stroke rat and a normal rat through the tail vein, under isoflurane anesthesia. One and three hours after the intravenous injection, NIR images of the head portion were obtained. Further, NIR fluorescence images of the brains of the rats of the 3 hour group were obtained.
# [13] = etoposide 15 hours, fluorescein-annexin V room temperature 15 minutes, PI
substance,measurement,setting,value
fluorodeoxyglucose [[^18F]FDG],"PET signal at the tumor site, doxorubicin treated group compared with untreated group",[1],weaker signal
annexin V: 36 kDa protein that binds to phosphatidylserine; used to detect apoptotic cells [reference compound],labeling of normal cells not treated with etoposide,[2]; Alexa594-annexin V,no labeling was observed
same,labeling of etoposide-treated apoptotic cells (fluorescence microscopy),"[2]; 50 μM etoposide, Alexa594-annexin V room temperature 15 minutes",labeling was observed
same,"percentage of the cells stained by both annexin V and PI (fraction Q2, later stage of apoptosis)",[3]; [13],9.4%
same,"percentage of the cells stained only by annexin V (fraction Q4, early stage of apoptosis)",[3]; [13],64.3%
same,fluorescence of labeled annexin V after pre-treatment with unlabeled annexin V,apoptotic A549 cells [4],decreased significantly
same,labeling of trail-treated apoptotic MDA-MB231 cells,"[5]; 50 ng/ml trail 16 hours, 10 μM fluorescein-labeled peptide 4° C. 1 hour",labeling was observed
same,labeling of MDA-MB231 cells not treated with trail,[5]; 10 μM peptide 4° C. 1 hour,no labeling was observed
same,fluorescence of labeled annexin V after pre-treatment with unlabeled annexin V,apoptotic A549 cells [6],decreased significantly
same,labeling of A549 cells not treated with etoposide,[7]; 10 μM peptide 4° C. 1 hour,no labeling was observed
same,labeling of etoposide-treated apoptotic A549 cells,"[7]; 50 μM etoposide 16 hours, 10 μM fluorescein-labeled peptide 4° C. 1 hour",labeling was observed
same,percentage of the cells stained by annexin V,"[8]; etoposide 20 hours, fluorescein-annexin V room temperature 15 minutes",61%
"NSSSVDK [control peptide, reference compound]",ex vivo fluorescence signal from the kidney,"[9]; 4 hours after peptide injection, all the groups, renal clearance",strong
same,"fluorescence signal from the tumor, doxorubicin treated group","[9]; Dox+, Cy7.5-labeled peptide 50 μM",targeting was not observed; also recorded: weakly detected
same,binding to apoptotic cells (FACS),"[3]; etoposide-treated A549 cells, 4° C. 1 hour",almost nonexistent
same,peptide fluorescence observed in the tumor tissue,[10],hardly observed
same,"fluorescence signal from the tumor, doxorubicin treated group",[11],weakly detected or almost nonexistent
same,NIR fluorescence at the head portion of the stroke rat,[12],almost nonexistent
same,binding to apoptotic cells (FACS),"[8]; etoposide-treated A549, 10 μM, 4° C. or 37° C.",almost nonexistent or minimal
